Experimental data taken from US10208033B2, “β-carboline, dihydro-β-carboline and tetrahydro-β-carboline alkaloid derivatives and preparation methods same and use in aspects of preventing and treating plant viruses, fungicides and insecticides” (NANKAI UNIVERSITY, priority 2013, dated 2019).

Assays:
[1] = test system: Alternaria solani; assay: Fungicidal (bactericidal) activity in vitro, PDA colony diameter; format: cell-based; conditions: Alternaria solani, 96 h; 50 mg/kg
[2] = test system: Botrytis cinerea; assay: as above; format: cell-based; conditions: Botrytis cinerea, 96 h; 50 mg/kg
[3] = test system: Macrophoma kawatsukai; assay: as above; format: cell-based; conditions: 50 mg/kg
[4] = test system: Sclerotinia scleotiorum; assay: as above; format: cell-based; conditions: Sclerotinia, 96 h; 50 mg/kg
[5] = test system: cotton bollworms; assay: whole plant or invertebrate; conditions: Helicoverpa armigera, in Gossypium hirsutum, read-out: Cotton bollworm Mortality (%)
Description: Experimental method of cotton bollworms: feed and drug mixing method: measure 3 mL of prepared solution and add it to about 27 g of newly prepared feed, thereby obtaining needed concentration through dilution by 10 times.

[6] = test system: tobacco mosaic virus (TMV); assay: Anti-TMV in vivo therapeutic effect; set-up: species or system tobacco mosaic virus (host Nicotiana tabacum L.cv.Xanthi NN); conditions: Tobacco mosaic virus, read-out: Relative inhibition rate (%) In vivo therapy; for inhibition at 100 µg/mL: treatment dose 100 μg/mL; for inhibition at 500 µg/mL: treatment dose 500 μg/mL
[7] = test system: corn borers; assay: whole plant or invertebrate; conditions: read-out: Corn borer Mortality (%)
[8] = test system: tobacco mosaic virus (TMV); assay: Anti-TMV in vivo protective effect; set-up: species or system tobacco mosaic virus (host Nicotiana tabacum L.cv.Xanthi NN); conditions: Tobacco mosaic virus, read-out: Relative inhibition rate (%) In vivo protection; for inhibition at 100 µg/mL: treatment dose 100 μg/mL; for inhibition at 500 µg/mL: treatment dose 500 μg/mL
[9] = test system: cucumber fusarium wilt; assay: Fungicidal (bactericidal) activity in vitro, PDA colony diameter; format: cell-based; conditions: Fusarium, 96 h; 50 mg/kg
[10] = test system: armyworms; format: in vivo; conditions: concentration 600 mg/kg
[11] = test system: mosquito larvae; assay: whole plant or invertebrate; conditions: Culex pipiens, 24 h, read-out: Mosquito larvae Mortality (%)
Method in brief: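 Compound dissolved in acetone (or other solvent) to a 1000 ppm stock and diluted in water to 5 ppm. Ten Culex pipiens pallens larvae at the start of the fourth instar, laboratory-reared, added per beaker; solvent-only aqueous control.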

[12] = test system: Bipolaria maydis; assay: organism not typed; format: cell-based; conditions: read-out: Bactericidal activity (%) Bipolaria maydis
[13] = test system: Cercospora arachidicola; assay: Fungicidal (bactericidal) activity in vitro, PDA colony diameter; format: cell-based; conditions: Mycosphaerella arachidis, 96 h; 50 mg/kg
[14] = test system: Fusarium graminearumt; assay: microbe, parasite or virus in culture; format: cell-based; conditions: Fusarium, 96 h, read-out: Bactericidal activity (%) Fusarium graminearumt
[15] = test system: tobacco mosaic virus (TMV); assay: Anti-TMV in vitro effect (half-leaf soaking); format: cell-based, tobacco mosaic virus (host Nicotiana tabacum L.cv.Xanthi NN); conditions: Tobacco mosaic virus, read-out: Relative inhibition rate (%) In vitro activity; for inhibition at 100 µg/mL: treatment dose 100 μg/mL; for inhibition at 500 µg/mL: treatment dose 500 μg/mL
[16] = test system: tobacco mosaic virus (TMV); assay: Anti-TMV in vivo inactivation; set-up: species or system tobacco mosaic virus (host Nicotiana tabacum L.cv.Xanthi NN); conditions: Tobacco mosaic virus, read-out: Relative inhibition rate (%) In vivo inactivation; for inhibition at 100 µg/mL: treatment dose 100 μg/mL; for inhibition at 500 µg/mL: treatment dose 500 μg/mL
[17] = test system: Fusarium fujikuroi; assay: Fungicidal (bactericidal) activity in vitro, PDA colony diameter; format: cell-based; conditions: Fusarium fujikuroi, 96 h; 50 mg/kg
[18] = test system: Colletotrichum orbiculare; assay: as above; format: cell-based; conditions: Colletotrichum orbiculare, 96 h; 50 mg/kg
[19] = test system: Rhizoctonia solani; assay: as above; format: cell-based; conditions: Rhizoctonia solani, 96 h; 50 mg/kg
[20] = test system: Rhizoctonia cereali; assay: as above; format: cell-based; conditions: Rhizoctonia, 96 h; 50 mg/kg
[21] = test system: Phytophthora capsici; assay: as above; format: cell-based; conditions: Phytophthora capsici, 96 h; 50 mg/kg
[22] = test system: potato late blight; assay: microbe, parasite or virus in culture; format: cell-based; conditions: Phytophthora infestans, 96 h, read-out: Bactericidal activity (%) potato late blight

SMILES	inhibition of growth at 50 mg/kg [1]	inhibition of growth at 50 mg/kg [2]	inhibition at 50 mg/kg [3]	inhibition of growth at 50 mg/kg [4]	mortality at 600 mg/kg [5]	inhibition at 100 µg/mL [6]	inhibition at 500 µg/mL [6]	mortality at 600 mg/kg [7]	inhibition at 100 µg/mL [8]	inhibition at 500 µg/mL [8]	inhibition of growth at 50 mg/kg [9]	Armyworm Mortality (%) [10]	mortality at 10 mg/kg [11]	inhibition at 50 mg/kg [12]	inhibition of growth at 50 mg/kg [13]	inhibition of growth at 50 mg/kg [14]	inhibition at 100 µg/mL [15]	inhibition at 500 µg/mL [15]	inhibition at 100 µg/mL [16]	inhibition at 500 µg/mL [16]	also measured
Cc1nc(C(=O)O)cc2c1[nH]c1ccccc12 [Ia-11, 1-methyl-pyridino [3,4-b] indol-3-formic acid]	33.3%	63.6%	82.4%	72%	10%	0%	29.6%	10%	0%	21.4%	19.1%	10%	50%	21.1%	50%	35.7%	0%	32.5%	0%	27.3%	inhibition of growth at 50 mg/kg [17]: 35.7%; inhibition of growth at 50 mg/kg [18]: 38.1%; inhibition of growth at 50 mg/kg [19]: 42.9%; inhibition of growth at 50 mg/kg [20]: 53.1%; inhibition of growth at 50 mg/kg [21]: 60.6%; inhibition of growth at 50 mg/kg [22]: 25%
C[C@@H]1N[C@H](C(=O)O)Cc2c1[nH]c1ccccc21 [Ib-1, (1S, 3S)-1-methyl-2,3,4,9-tetrahydropyridino [3,4-b] indol-3-formic acid]	21.1%	21.2%	23.8%	7.8%	25%	15.8%	40.4%	25%	20%	41.3%	19.2%	25%	55%	22.7%	30.8%	26.2%	18.9%	41.6%	13.5%	35.5%	inhibition of growth at 50 mg/kg [17]: 21.4%; inhibition of growth at 50 mg/kg [18]: 35.7%; inhibition of growth at 50 mg/kg [19]: 26.3%; inhibition of growth at 50 mg/kg [20]: 42.1%; inhibition of growth at 50 mg/kg [21]: 18.8%; inhibition of growth at 50 mg/kg [22]: 27.3%
C[C@H]1N[C@@H](C(=O)O)Cc2c1[nH]c1ccccc21 [Ib-2, (1R,3R)-1-methyl-2,3,4,9-tetrahydropyridino [3,4-b] indol-3-formic acid]	0%	18.2%	23.8%	23.5%	25%	0%	31.5%	10%	0%	29.7%	23.1%	10%	30%	9.1%	61.5%	21.4%	0%	25%	0%	28.6%	inhibition of growth at 50 mg/kg [17]: 0%; inhibition of growth at 50 mg/kg [18]: 25%; inhibition of growth at 50 mg/kg [19]: 29%; inhibition of growth at 50 mg/kg [20]: 31.6%; inhibition of growth at 50 mg/kg [21]: 15.6%; inhibition of growth at 50 mg/kg [22]: 4.6%
O=C(O)[C@@H]1Cc2c([nH]c3ccccc23)[C@H](c2ccccc2)N1 [Ib-5, (1S, 3S)-1-phenyl-2,3,4,9-tetrahydropyridino [3,4-b] indol-3-formic acid]	15.8%	21.2%	11.9%	9.8%	30%	0%	24.3%	35%	0%	32.3%	19.2%	50%	100%	22.7%	69.2%	26.2%	0%	19.7%	0%	27.6%	mortality at 5 mg/kg [11]: 30%; inhibition of growth at 50 mg/kg [17]: 42.9%; inhibition of growth at 50 mg/kg [18]: 35.7%; inhibition of growth at 50 mg/kg [19]: 36.8%; inhibition of growth at 50 mg/kg [20]: 44.7%; inhibition of growth at 50 mg/kg [21]: 12.5%; inhibition of growth at 50 mg/kg [22]: 22.7%
C[C@@H]1N[C@H](C(=O)NC2CCCCC2)Cc2c1[nH]c1ccccc21 [Ib-17, (1S, 3S)—N-cyclohexyl-1-methyl-2,3,4,9-tetrahydro-pyridino [3,4-b] indol-3-formamide]	52.6%	27.3%	47.6%	33.3%	30%	15.1%	44.6%	40%	14.2%	37.1%	34.6%	45%	100%	45.5%	69.2%	59.5%	0%	38.8%	12.3%	43.3%	mortality at 5 mg/kg [11]: 10%; inhibition of growth at 50 mg/kg [17]: 28.6%; inhibition of growth at 50 mg/kg [18]: 50%; inhibition of growth at 50 mg/kg [19]: 50%; inhibition of growth at 50 mg/kg [20]: 71.1%; inhibition of growth at 50 mg/kg [21]: 37.5%; inhibition of growth at 50 mg/kg [22]: 31.8%
